Data as given in paper PMC7349888, “Synthesis and Evaluation of Dodecaboranethiol Containing Kojic Acid (KA-BSH) as a Novel Agent for Boron Neutron Capture Therapy” (Cells, 2020).

Tests used:
Assay type in all cases: cell-based
F98 rat glioma cells [1] = experiment: In vitro 10B uptake in F98 cells (ICP-AES); conditions: 24 h incubation in DMEM with 1 mM boron compound
Procedure: (§1) For the in vitro ^10B uptake study, B16 mouse melanoma cells, C6 rat glioma cells, and F98 rat glioma cells were used. B16 and C6 cells were used for in vitro testing at Osaka Prefecture University. Based on results from initial in vitro screening, the in vitro ^10B uptake study using F98 glioma cells were performed at Osaka Medical College. Four hundred thousand cells were seeded in a tissue culture dish (100 × 20 mm; Becton Dickinson, Franklin Lakes, NJ, USA) with DMEM supplemented with 10% FBS and 10% penicillin and streptomycin at 37 °C in a 5% CO2 atmosphere. After incubation for 4 days at 37 °C, the medium was removed, and DMEM with 10% FBS containing 1 mM KA-BSH, BSH, or BPA was added to each dish. The cells were incubated for an additional 24 h at 37 °C. The medium was then removed, and the cells were washed twice with 4 °C phosphate-buffered saline (PBS) and detached with trypsin–ethylenediamine tetraacetic acid solution. PBS was then added, and cells were digested overnight with 1 N nitric acid solution (Wako Pure Chemical Industries, Osaka, Japan), and ^10B uptake was determined by inductively coupled plasma atomic emission spectrometry (ICP-AES) using an iCAP6000 emission spectrometer (Hitachi High-Technologies, Tokyo, Japan).

F98 rat glioma cells [2] = experiment: Cell viability assay (WST-8) in F98 cells; conditions: WST-8 test, read-out: IC50 (cytotoxicity)
Procedure: The cytotoxicity of KA-BSH was assayed using the water soluble tetrazolium (WST)-8 assay with a cell-counting kit (Wako Pure Chemicals, Osaka, Japan) following a modified version of the manufacturer-provided protocols. Relative cell survival was calculated according to Equation (1):(1) Relative cell survival (%)=absorbance value of compound treated well/absorbance value of untreated well×100

B16 mouse melanoma cells = experiment: In vitro boron uptake in B16 cells; conditions: Figure S1
Procedure: as §1

C6 rat glioma cells = experiment: In vitro boron uptake in C6 cells; conditions: Figure S1
Procedure: as §1

S-(2-(5-hydroxy-4-oxo-4H-pyran-2-yl) methyl) Thioundecahydro-Closo- Dodecaborate (2-) Disodium Salt [KA-BSH]
10B concentration of F98 rat glioma cells (F98 rat glioma cells [1]): 0.821 ± 0.047 µg 10B/10^7 cells | IC50 (F98 rat glioma cells [2]): 10.4 mM | boron uptake into cancer cells (B16 mouse melanoma cells): taken up into cancer cells | boron uptake into cancer cells (C6 rat glioma cells): taken up into cancer cells
